How the values were obtained:
Japanese women = experiment: daily dosing in Japanese women (LH, E2, endometriosis-associated pain, safety); assay type: in vivo, human; conditions: doses between 50 and 200 mg daily
human GnRH receptor = molecular target: T1, human GnRH receptor (Homo sapiens, UniProt P30968); experiment: affinity for human GnRH receptor; assay type: binding; conditions: type of constant (Ki/IC50/Kd) not stated
T1 sequence (P30968 1-328): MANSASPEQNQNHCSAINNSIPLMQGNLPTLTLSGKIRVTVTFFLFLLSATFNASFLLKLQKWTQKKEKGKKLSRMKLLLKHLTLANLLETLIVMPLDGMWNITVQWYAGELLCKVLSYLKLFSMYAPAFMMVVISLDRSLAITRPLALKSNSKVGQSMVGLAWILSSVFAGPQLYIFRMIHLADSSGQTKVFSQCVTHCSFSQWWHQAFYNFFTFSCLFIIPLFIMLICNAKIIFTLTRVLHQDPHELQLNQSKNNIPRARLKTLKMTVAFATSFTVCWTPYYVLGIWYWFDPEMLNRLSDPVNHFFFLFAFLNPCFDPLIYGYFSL

[1] = tested on: various animal models of endometriosis; experiment: animal models of endometriosis; assay type: in vivo
[2] = tested on: human female patients having endometriosis; experiment: 12-week oral treatment of endometriosis patients grouped by initial serum AMH; serum E2 concentration; assay type: in vivo
Procedure: In order to investigate the effects of GnRH antagonists, such as compound (I), (II), and pharmaceutically acceptable salts thereof, such as the choline salt thereof (compound (III)), on endometriosis patients presenting with distinct initial values of serum AMH, a series of experiments was conducted in which patients were divided into multiple treatment arms and orally administered either compound (III) or a placebo. Specifically, a series of n=327 human female patients having endometriosis were divided into five groups, and received either placebo, 50 mg/day of compound (III), 75 mg/day of compound (III), 100 mg/day of compound (III), or 200 mg/day of compound (III) by oral delivery. Treatment with the placebo or compound (III) at the doses specified above occurred continuously over a period of 12 weeks. At various time points throughout these experiments, patients were evaluated for their serum E2 concentration. As described herein, an objective of endometriosis therapy utilizing a GnRH antagonist is to suppress serum E2 values to within a range of from about 20 pg/ml to about 50 pg/ml or lower. Alleviation of endometriosis symptoms correlates with a reduction of serum E2, and achieving serum E2 levels that are either within this range or below are indicators of successful endometriosis treatment. To analyze the response of patients presenting with different initial AMH serum concentrations, patients were further divided into groups based on initial AMH serum level. These groups included patients having initial AMH serum concentrations of less than 15 pM, from 15 pM to 35 pM, or greater than 35 pM prior to commencing treatment with the GnRH antagonist.

| SMILES | endometriosis-associated pain (Japanese women) | luteinizing hormone (LH) (Japanese women) | safety and tolerability profile (Japanese women) | β17-estradiol (E2) (Japanese women) | affinity for human GnRH receptor (human GnRH receptor) | E2 secretion [1] | serum LH concentration [1] | size of endometriotic lesions [1] | serum E2 concentration ([2]; 50 mg/day, 12-week treatment period, initial AMH serum concentration less than 15 pM (FIG. 1)) | suppression of serum E2 concentration ([2]; higher dosages, such as 100 mg/day and 200 mg/day, patients with higher initial serum AMH levels (FIG. 3)) | serum E2 ([2]; various daily doses, oral, 12 weeks, initial serum AMH from 15 pM to 35 pM (FIG. 2)) | serum E2 ([2]; various daily doses, oral, 12 weeks, initial serum AMH greater than 35 pM (FIG. 3)) | serum β17-estradiol (E2) ([2]; various daily doses, oral, 12 weeks, initial serum AMH less than 15 pM (FIG. 1)) |
| --- | --- | --- | --- | --- | --- | --- | --- | --- | --- | --- | --- | --- | --- |
| COc1cc(F)c(-n2c(=O)[nH]c3csc(C(=O)O)c3c2=O)cc1OCc1c(OC)ccc(F)c1F [Compound (II), 3-[2-fluoro-5-(2,3-difluoro-6-methoxybenzyloxy)4-methoxyphenyl]-2,4-dioxo-1,2,3,4-tetrahydrothieno[3,4d]pyrimidine-5-carboxylic acid] | significantly reduce | suppress | good safety and tolerability profile | suppress | 27.4 nM | significantly suppressing | significantly suppressing | significantly suppressing |  |  |  |  |  |
| COc1cc(F)c(-n2c(=O)[nH]c3csc(C(=O)O)c3c2=O)cc1OCc1c(OC)ccc(F)c1F [compound (III), choline 3-[2-fluoro-5-(2,3-difluoro-6-methoxybenzyloxy)4-methoxyphenyl]-2,4-dioxo-1,2,3,4-tetrahydrothieno[3,4d]pyrimidine-5-carboxylate] |  |  |  |  |  |  |  |  | achieve a reduction in serum E2 concentration | generally required for suppression of serum E2 concentration | dose-dependent suppression | dose-dependent suppression | dose-dependent suppression |
